Measured values published in publication PMC9967789, “Green Drug Discovery: Novel Fragment Space from the Biomass-Derived Molecule Dihydrolevoglucosenone (Cyrene^TM)” (Molecules, 2023).

How the values were obtained:
[1] = Nephelometry solubility in HBSS buffer containing 1% DMSO; type: physicochemical; settings: for concentration up to which no signs of precipitation or aggregation are shown: in triplo
Description: Nephelometry was performed using NEPHELOstar Plus equipment (BMG LABTECH, Ortenberg, Germany). Kaolin was used as the internal standard, and compounds were added to HBSS buffer as DMSO stock solution to a final concentration of 1% DMSO and a total volume of 200 μL. Precipitation or aggregation was considered significant when average values exceeded three times the standard deviation of the blanks. Blank values were omitted if they exceeded three times the standard deviation of the 24 blanks that were measured on each 96-well plate. All compounds were tested in triplo, and wells of suspected outliers were visually inspected before omitting any outliers. Data were processed in Prism version 8.0 (GraphPad, San Diego, CA, USA).

[2] = Incubation experiment: fragment integrity by LCMS in HBSS buffer/1% DMSO; type: physicochemical; settings: 10^−4 M in HBSS buffer/1% DMSO
Description: (§1) LCMS studies: A 10 mM solution in DMSO was diluted with HBSS buffer to 0.10 mM. Fragment integrity was measured by LCMS at regular intervals (not shown) up to 20 d in the dark at rt, or after 20 d of freezing. NMR studies: A 10 mM solution in DMSO-d6 was prepared. Fragment integrity was measured with ^1H NMR analysis at regular intervals (not shown) up to 20 d in the dark at rt, or after 20 d of freezing.

[3] = Incubation experiment: fragment integrity by 1H NMR in DMSO-d6; type: physicochemical; settings: 10^−2 M in DMSO-d6, NMR, three weeks at room temperature or frozen
Description: as §1

[4] = cited from earlier work
[5] = set-up: method as in doi:10.1021/acssuschemeng.6b02115; settings: cited from earlier work

## Cc1ccc(COC2CC[C@H]3CO[C@@H]2O3)cc1 (some centres unmarked) [Compound 5c]
[1]
  concentration up to which no signs of precipitation or aggregation are shown: 1000 µM

## O=C(Nc1ccc(Cl)cc1)OC1CC[C@H]2CO[C@@H]1O2 (some centres unmarked) [Compound 7c]
[1]
  concentration at which the precipitate/aggregate starts to form: 10^−3 M
  concentration up to which no signs of precipitation or aggregation are shown: 320 µM

## Cn1ccc(CNC2CC[C@H]3CO[C@@H]2O3)n1.O=C(O)CCC(=O)O (some centres unmarked) [Compound 8f]
[1]
  concentration up to which no signs of precipitation or aggregation are shown: 3200 µM

## Clc1cccc(Cl)c1CNC1CC[C@H]2CO[C@@H]1O2 (some centres unmarked) [Compound 8h]
[2]; three weeks at room temperature
  byproduct formed: ca. 2.5%
[3]
  decomposition in DMSO: no significant decomposition

## COc1ccc(C(=O)NC2CC[C@H]3CO[C@@H]2O3)cc1 (some centres unmarked) [Compound 9h]
[2]; three weeks at room temperature or frozen
  reactivity on incubation in buffer: no or only minor reactivity
[3]
  decomposition in DMSO: no significant decomposition

## O=C(NC1CC[C@H]2CO[C@@H]1O2)c1cccs1 (some centres unmarked) [Compound 9p]
[1]
  concentration up to which no signs of precipitation or aggregation are shown: 1000 µM

## O=S(=O)(NC1CC[C@H]2CO[C@@H]1O2)C1CC1 (some centres unmarked) [Compound 12f]
[1]
  concentration up to which no signs of precipitation or aggregation are shown: 320 µM

## O=C1CC[C@H]2CO[C@@H]1O2 [Cyrene, dihydrolevoglucosenone]
[4]
  water solubility: highly water-soluble
[5]
  toxicity: low toxicity

## C1COC2(CCC3COC2O3)O1 (centres unmarked) [glycol acetal of Cyrene]
[4]
  miscibility with water: water-miscible

## O=C1CC2COC(C1)O2 (centres unmarked) [iso-Cyrene]
[4]; water
  concentration of solutions obtained in water: 10000 µM
